{
  "source": "patent US20070264212A1",
  "about": "“Skin Lightening Method” (priority 2004, published 2007)",
  "assay_type_in_all_cases": "in vivo, human",
  "key": {"[1]": {"system": "skin tone of adult test subject, skin type IV (moderate brown), Fitzpatrick classification", "test": "Skin tone lightening by oral MSM supplement taken twice daily (Table I)", "settings": "3 months", "experimental": "A first procedure for performing step 102 is described in Table I below, at various dosage levels and application periods. The application periods indicated in the table were carried out in immediately successive periods on the same individual. Exemplary results are also shown in Table I, for an adult test subject of approximately 45 kg weight having a skin type IV (moderate brown) according to the Fitzpatrick skin type classification. […] Because of variation between individuals, the effective amount of MSM that should be delivered to cause a noticeable change in skin tone may vary somewhat. For example, dosage should be calculated based on body weight. Based on the disclosure herein, one of ordinary skill should be able to determine an effective dosage regimen without undue experimentation. […] For the tested individual, the optimal dose for maximum skin lightening appears to be between 2000 and 4000 mg (45 to 90 mg/kg) daily."}, "[2]": {"system": "skin tone of adult test subject, skin type IV (moderate brown), Fitzpatrick classification", "test": "Skin tone lightening by oral MSM plus topical application of MSM in water solution (Table II)", "settings": "once daily, 3 months", "experimental": "In an alternative embodiment, step 102 may be performed by oral delivery of MSM in combination with a topical application. […] Exemplary results are also shown in […], for the same test subject reported in Table I. Each row of the table indicates result for a procedure that was performed during one of successive 3-month periods. For each procedure described in Table II, MSM delivered was in an effective amount for the reported test subject. Again, some variation in effective amount should be expected between individuals. For the procedures described in Table II, a topical application may be prepared by dissolving the indicated amount of MSM in water to provide an approximately 15% by weight solution. For example, one tablespoon of MSM may be dissolved in 8 to 10 tablespoons of warm water to prepare the solution indicated in the first row. Then, the solution may be applied to the skin, which may be kept moistened with the solution for a period of approximately ten minutes or longer. The solution may be applied cover the entire body, or only in areas where greater lightening of skin tone is desired. The indicated application may be performed once daily for approximately a three-month period. […] Suitable formulations for transdermal patches to deliver MSM should be readily ascertained by one of ordinary skill."}, "[3]": {"system": "skin tone of test subject having a natural skin tone of Fitzpatrick type IV", "test": "Skin tone lightening by oral and topical MSM in combination with an exfoliate", "settings": "oral and topical MSM plus exfoliate (e.g. twice-weekly 30% lactic or glycolic acid rinse)", "source_text": "Referring again to FIG. 1, at step 104, a skin lightening effect may be enhanced by application of an exfoliant during the MSM treatment period. The exfoliant is believed to cause more darkly pigmented cells that formed during a pre-treatment period to be more rapidly shed. […] For example, the treatment regimen described in the second row of Table III may be combined with a twice-weekly rinse in an exfoliate solution. A suitable exfoliate solution may comprise, for example, a 30% solution of lactic or glycolic acid. A lactic acid solution may be more suitable for an individual with sensitive skin. In a test using an exfoliate in combination with oral and topical application, the test subject having a natural skin tone of Fitzpatrick type IV achieved and maintained a class III tone overall, with class II tone in constitutive skin areas."}, "[4]": {"settings": "oral MSM 2000 mg twice daily (4000 mg daily), successive period, same subject"}},
  "note": "“Also recorded” adds a separate entry of the source.",
  "data": [
    {"molecule": "CS(C)(=O)=O", "note": "[MSM, methyl sulfonyl methane]", "values": [
      {"measurement": "Results (observed skin tone)", "setting": "[1]; oral MSM 100 mg twice daily (200 mg daily), adult person ~45 kg, skin type IV", "result": "No Change"},
      {"measurement": "Results (observed skin tone)", "setting": "[1]; oral MSM 250 mg twice daily (500 mg daily), successive period, same subject", "result": "No Change"},
      {"measurement": "Results (observed skin tone)", "setting": "[1]; oral MSM 500 mg twice daily (1000 mg daily), successive period, same subject", "result": "No Change"},
      {"measurement": "Results (observed skin tone), constitutive skin such as under the arms, inner thighs, chests and nipples", "setting": "[1]; oral MSM 1000 mg twice daily (2000 mg daily), successive period, same subject", "result": "Light Brown (skin type III)"},
      {"measurement": "Results (observed skin tone), constitutive skin", "setting": "[1]; [4]", "result": "Olive (skin type II) observed in"},
      {"measurement": "Results (observed skin tone), facultative skin such as the neck, face, forearms", "setting": "[1]; [4]", "result": "Light Brown (skin type III)"},
      {"measurement": "Results, freckles on face", "setting": "[1]; [4]", "result": "Freckles on face also lightened"},
      {"measurement": "Results (observed skin tone)", "setting": "[1]; oral MSM 3000 mg twice daily (6000 mg daily), successive period, same subject", "result": "did not cause noticeable lightening relative to the 4000 mg regimen; also recorded: Same results as 4000 mg per day"},
      {"measurement": "Results (observed skin tone), total body complexion", "setting": "[2]; oral 2000 mg twice daily (4000 mg daily) + topical 1 Tablespoon (10,000 mg) MSM in water, approx. 15% solution", "result": "Light olive (skin type III)"},
      {"measurement": "Results (observed skin tone), elsewhere than constitutive skin", "setting": "[2]; oral 2000 mg twice daily (4000 mg daily) + topical 2 Tablespoons (20,000 mg) MSM in water", "result": "light olive; elsewhere light olive"},
      {"measurement": "Skin tone achieved and maintained, constitutive skin areas", "setting": "[3]", "result": "class II"},
      {"measurement": "Skin tone achieved and maintained, overall", "setting": "[3]", "result": "class III"}
    ]}
  ]
}
